Results from the NIST ThermoML archive (doi:10.1021/je050056e).

Settings: Liquid; for mass density: 101.33 kPa

FC1(F)C(F)(F)C(F)(F)C2(F)C(F)(F)C(F)(F)C(F)(F)C(F)(F)C2(F)C1(F)F (centres undefined) [perfluorodecalin]
Settings	mass density [kg/m3]	vapor or sublimation pressure [kPa]
288.15 K	1952.8	–
288.25 K	–	0.57
293.15 K	1941.7	–
293.25 K	–	0.73
298.15 K	1930.5	–
298.21 K	–	0.91
303.15 K	1919.2	–
303.29 K	–	1.25
308.23 K	–	1.59
313.15 K	1896.6	–
313.22 K	–	2.05
318.21 K	–	2.66
323.18 K	–	3.45
328.17 K	–	4.41
333.2 K	–	5.47

Fc1c(F)c(F)c(C(F)(F)F)c(F)c1F [octafluorotoluene]
Settings	mass density [kg/m3]	vapor or sublimation pressure [kPa]
288.15 K	1682.8	–
288.23 K	–	2.18
293.15 K	1672.2	–
293.2 K	–	2.95
298.15 K	1661.6	–
298.28 K	–	3.87
303.15 K	1650.9	–
303.18 K	–	5.09
308.15 K	1640.2	6.54
313.15 K	1629.4	8.43
318.15 K	–	10.69
323.15 K	–	13.38
328.45 K	–	16.86
333.93 K	–	21.31

FC(F)(F)C(F)(F)C(F)(F)C(F)(F)C(F)(F)C(F)(F)C(F)(F)C(F)(F)Br [1-bromoperfluorooctane]
Settings	mass density [kg/m3]	vapor or sublimation pressure [kPa]
288.15 K	1938.6	–
288.22 K	–	0.38
293.15 K	1926.7	–
293.2 K	–	0.54
298.08 K	–	0.69
298.15 K	1914.8	–
303.15 K	1902.8	–
303.26 K	–	0.98
308.15 K	1890.8	–
308.22 K	–	1.3
313.15 K	1878.6	–
313.18 K	–	1.67
318.09 K	–	2.24
322.92 K	–	2.89
327.88 K	–	3.69
332.78 K	–	4.7

FC(F)(F)C(F)(F)C(F)(F)C(F)(F)C(F)(F)C(F)(F)F [perfluorohexane]
Settings	mass density [kg/m3]	vapor or sublimation pressure [kPa]
288.15 K	1705.6	–
288.31 K	–	18.78
293.15 K	1691	–
293.22 K	–	23.58
298.09 K	–	29.28
298.15 K	1676.1	–
302.98 K	–	36.19
303.15 K	1661.1	–
307.97 K	–	44.38
313.15 K	1630.2	–
313.17 K	–	54.56
318.15 K	–	65.86
323.13 K	–	78.91
328.11 K	–	94.08
333.1 K	–	111.39

FC(F)C(F)(F)C(F)(F)C(F)(F)C(F)(F)C(F)(F)C(F)(F)C(F)(F)F [1H-perfluorooctane]
Settings	mass density [kg/m3]	vapor or sublimation pressure [kPa]
288.15 K	1773.6	–
288.35 K	–	1.18
293.15 K	1761.8	–
293.26 K	–	1.6
298.15 K	1749.9	–
298.26 K	–	2.18
303.15 K	1737.9	–
303.19 K	–	2.84
308.15 K	1725.8	3.72
313.13 K	–	4.87
313.15 K	1713.6	–
318.06 K	–	6.22
323.01 K	–	8.07
328 K	–	10.25
332.89 K	–	12.83

Fc1c(F)c(F)c(F)c(F)c1F [hexafluorobenzene]
Settings	mass density [kg/m3]	vapor or sublimation pressure [kPa]
288.15 K	1628.9	–
288.23 K	–	6.9
293.15 K	1617.5	–
293.51 K	–	9
297.98 K	–	11.16
298.15 K	1606.2	–
302.96 K	–	14.2
303.15 K	1594.8	–
307.96 K	–	17.93
308.15 K	1583.3	–
312.96 K	–	22.25
313.15 K	1571.8	–
317.96 K	–	27.56
322.96 K	–	33.85
327.95 K	–	41.16
333.01 K	–	49.95

FC(F)(F)C(F)(F)C(F)(F)C(F)(F)C(F)(F)C(F)(F)C(F)(F)C(F)(F)C(F)(F)F [eicosafluorononane]
Settings	mass density [kg/m3]	vapor or sublimation pressure [kPa]
288.15 K	1812.2	–
288.18 K	–	0.68
293.15 K	1800.1	–
293.18 K	–	0.94
298.11 K	–	1.29
298.15 K	1787.9	–
303.1 K	–	1.71
303.15 K	1775.7	–
308.19 K	–	2.32
313.15 K	1750.9	–
313.17 K	–	3.06
318.22 K	–	3.99
323.15 K	–	5.14
328.15 K	–	6.59
333.15 K	–	8.42
